Assay results from ChEMBL document CHEMBL5113481, “Design, synthesis and biological evaluation of quinoline-2-carbonitrile-based hydroxamic acids as dual tubulin polymerization and histone deacetylases inhibitors” (Eur J Med Chem, 2022).
≈ marks a conversion by molar mass, not a printed value. Calls of active or inactive are those of the source. The rule behind the calls is not given here.

Assays:
K562 [1] = experiment: Antiproliferative activity against human K562 cells after 72 hrs by CellTiter Glo assay; assay type: functional, cell-based; conditions: K562, 72 h
HT-29 [2] = experiment: Antiproliferative activity against human HT-29 cells after 72 hrs by CellTiter Glo assay; assay type: functional, cell-based; conditions: HT-29, 72 h
MIA PaCa-2 = experiment: Antiproliferative activity against human MIA PaCa-2 cells after 72 hrs by CellTiter Glo assay; assay type: functional, cell-based; conditions: MIA PaCa-2, 72 h
A549 = experiment: Antiproliferative activity against human A549 cells after 72 hrs by CellTiter Glo assay; assay type: functional, cell-based; conditions: A549, 72 h
HCT-116 = experiment: Antiproliferative activity against human HCT-116 cells after 72 hrs by CellTiter Glo assay; assay type: functional, cell-based; conditions: for GI50: time 72 hrs
MCF7 = experiment: Antiproliferative activity against human MCF7 cells after 72 hrs by CellTiter Glo assay; assay type: functional, cell-based; conditions: MCF7, 72 h
K562 [3] = experiment: Antiproliferative activity against imatinib-resistant human K562 cells over expressing MDR1 after 72 hrs by CellTiter Glo assay; assay type: functional, cell-based; conditions: K562, 72 h
NCI-N87 = experiment: Antiproliferative activity against human NCI-N87 cells after 72 hrs by CellTiter Glo assay; assay type: functional, cell-based; conditions: NCI-N87, 72 h
SK-OV-3 = experiment: Antiproliferative activity against human SK-OV-3 cells after 72 hrs by CellTiter Glo assay; assay type: functional, cell-based; conditions: SK-OV-3, 72 h
MDA-MB-231 = experiment: Antiproliferative activity against human MDA-MB-231 cells after 72 hrs by CellTiter Glo assay; assay type: functional, cell-based; conditions: MDA-MB-231, 72 h
[4] = Metabolic stability in human liver microsomes assessed as half-life measured upto 6 hrs in presence of NADPH generating system by HPLC-MS/MS analysis; assay type: ADME, Microsome
Histone deacetylase 8 = molecular target: T1, Histone deacetylase 8 (Homo sapiens, UniProt Q9BY41); experiment: Inhibition of HDAC8 (unknown origin) measured by fluorometry assay
T1 sequence (Q9BY41 whole entry): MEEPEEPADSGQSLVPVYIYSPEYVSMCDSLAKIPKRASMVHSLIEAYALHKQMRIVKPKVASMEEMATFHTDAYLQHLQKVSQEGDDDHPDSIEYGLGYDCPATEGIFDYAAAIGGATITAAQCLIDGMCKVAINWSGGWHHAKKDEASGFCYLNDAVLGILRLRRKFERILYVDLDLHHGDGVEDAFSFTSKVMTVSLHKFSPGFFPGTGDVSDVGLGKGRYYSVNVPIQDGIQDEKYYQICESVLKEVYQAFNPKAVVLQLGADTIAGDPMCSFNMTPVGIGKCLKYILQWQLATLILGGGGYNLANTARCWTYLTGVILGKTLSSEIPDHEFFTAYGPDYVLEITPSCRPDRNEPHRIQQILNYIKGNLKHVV

HT-29 [5] = experiment: Cell cycle arrest in human HT-29 cells assessed as accumulation of cells in G2/M phase at 0.1 to 5 nM measured after 24 hrs by PI staining based flow cytometry method; assay type: functional; conditions: dose 0.1-5 nM, DDE = dose-dependent effect
[6] = Metabolic stability in rat liver microsomes assessed as intrinsic clearance per mg protein measured upto 6 hrs in presence of NADPH generating system by HPLC-MS/MS analysis; assay type: ADME, Microsome; conditions: read-out: CLH
Histone deacetylase 11 = molecular target: T2, Histone deacetylase 11 (Homo sapiens, UniProt Q96DB2); experiment: Inhibition of HDAC11 (unknown origin) measured by fluorometry assay
T2 sequence (Q96DB2 whole entry): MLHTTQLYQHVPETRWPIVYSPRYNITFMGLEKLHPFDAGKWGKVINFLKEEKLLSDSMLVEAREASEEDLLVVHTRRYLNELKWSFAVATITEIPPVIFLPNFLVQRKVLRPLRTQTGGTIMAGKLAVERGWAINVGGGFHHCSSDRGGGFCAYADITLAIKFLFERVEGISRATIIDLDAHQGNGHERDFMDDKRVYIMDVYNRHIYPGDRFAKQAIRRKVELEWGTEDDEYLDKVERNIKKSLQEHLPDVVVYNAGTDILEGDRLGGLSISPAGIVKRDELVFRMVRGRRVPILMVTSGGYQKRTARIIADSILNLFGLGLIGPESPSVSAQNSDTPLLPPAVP

[7] = Metabolic stability in rat liver microsomes assessed as half-life measured upto 6 hrs in presence of NADPH generating system by HPLC-MS/MS analysis; assay type: ADME, Microsome
HT-29 [8] = experiment: Cell cycle arrest in human HT-29 cells assessed as accumulation of cells in G2/M phase at 5 nM measured after 24 hrs by PI staining based flow cytometry method; assay type: functional
HT-29 [9] = experiment: Induction of mitochondrial dysfunction in human HT-29 cells at 2 nM measured after 48 hrs by JC-1 staining based flow cytometry; assay type: functional, cell-based
[10] = Metabolic stability in human liver microsomes assessed as intrinsic clearance per mg protein measured upto 6 hrs in presence of NADPH generating system by HPLC-MS/MS analysis; assay type: ADME, Microsome; conditions: read-out: CLH
[11] = Solubility of compound in water; assay type: physicochemical
[12] = molecular target: T3, Protein deacetylase HDAC6 (Homo sapiens, UniProt Q9UBN7); experiment: Inhibition of HDAC6 (unknown origin) measured by fluorometry assay
T3 sequence (Q9UBN7 whole entry): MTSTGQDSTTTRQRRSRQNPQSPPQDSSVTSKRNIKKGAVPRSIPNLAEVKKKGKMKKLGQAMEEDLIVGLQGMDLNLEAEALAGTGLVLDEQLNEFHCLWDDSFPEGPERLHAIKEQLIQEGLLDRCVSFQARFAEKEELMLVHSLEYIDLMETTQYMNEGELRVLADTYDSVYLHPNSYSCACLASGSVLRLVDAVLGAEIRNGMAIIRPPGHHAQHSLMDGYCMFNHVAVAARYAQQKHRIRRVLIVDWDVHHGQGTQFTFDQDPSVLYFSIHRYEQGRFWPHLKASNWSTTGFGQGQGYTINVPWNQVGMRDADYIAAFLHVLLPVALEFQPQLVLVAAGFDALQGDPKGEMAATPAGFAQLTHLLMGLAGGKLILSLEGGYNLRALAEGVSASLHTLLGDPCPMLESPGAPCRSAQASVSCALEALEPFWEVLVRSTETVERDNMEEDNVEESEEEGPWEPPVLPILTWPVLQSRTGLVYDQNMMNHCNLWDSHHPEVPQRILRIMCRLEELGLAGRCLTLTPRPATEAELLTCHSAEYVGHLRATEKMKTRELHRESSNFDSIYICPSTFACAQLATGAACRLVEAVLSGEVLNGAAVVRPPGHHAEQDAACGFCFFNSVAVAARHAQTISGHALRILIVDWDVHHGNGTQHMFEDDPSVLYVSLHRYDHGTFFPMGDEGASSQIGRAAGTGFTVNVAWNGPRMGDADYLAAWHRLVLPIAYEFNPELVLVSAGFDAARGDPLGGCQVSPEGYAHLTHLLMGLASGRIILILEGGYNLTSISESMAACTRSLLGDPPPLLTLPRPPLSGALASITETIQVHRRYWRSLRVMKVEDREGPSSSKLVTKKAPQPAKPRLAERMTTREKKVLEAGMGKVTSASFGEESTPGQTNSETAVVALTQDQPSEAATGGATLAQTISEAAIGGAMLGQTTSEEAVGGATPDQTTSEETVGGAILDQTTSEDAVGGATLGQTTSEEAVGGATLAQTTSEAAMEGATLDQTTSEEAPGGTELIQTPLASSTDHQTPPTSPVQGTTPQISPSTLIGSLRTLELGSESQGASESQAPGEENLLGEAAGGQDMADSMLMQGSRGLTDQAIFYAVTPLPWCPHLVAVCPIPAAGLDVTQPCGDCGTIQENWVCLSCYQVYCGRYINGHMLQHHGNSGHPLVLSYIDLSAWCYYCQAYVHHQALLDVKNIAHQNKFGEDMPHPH

Tubulin = experiment: Inhibition of tubulin polymerization in human HeLa cells assessed as microtubule network polymerization after 30 mins by immunofluorescence analysis; assay type: cell-based

COc1ccc(Cn2ccc3ccc(C(=O)NO)cc32)cc1
IC50 (K562 [1]): 2010 nM
IC50 (HT-29 [2]): > 10000 nM
IC50 (MIA PaCa-2): > 20000 nM
IC50 (A549): 2000 nM
GI50 (HCT-116; Homo sapiens, HCT-116): 2600 nM
IC50 (MCF7): 2980 nM
IC50 (K562 [3]): 2200 nM
IC50 (NCI-N87): 1500 nM

COc1ccc(/C=C\c2cc(OC)c(OC)c(OC)c2)cc1O [COMBRETASTATIN A4]
IC50 (HT-29 [2]): > 10000 nM
IC50 (MIA PaCa-2): 8 nM
IC50 (SK-OV-3): 6 nM
GI50 (HCT-116; Homo sapiens, HCT-116): 2.4 nM
IC50 (MCF7): 172 nM
IC50 (K562 [3]): 25 nM
IC50 (NCI-N87): 11 nM

CC(/C=C/C(=O)NO)=C\[C@@H](C)C(=O)c1ccc(N(C)C)cc1 [TRICHOSTATIN]
IC50 (K562 [1]): 260 nM
IC50 (HT-29 [2]): 55 nM
IC50 (MIA PaCa-2): 200 nM
IC50 (A549): 80 nM
IC50 (SK-OV-3): 100 nM
IC50 (MDA-MB-231): 91 nM
GI50 (HCT-116): 35 nM
IC50 (MCF7): 54 nM
IC50 (K562 [3]): 90 nM
IC50 (NCI-N87): 58 nM

COc1ccc(N(C)c2nc(C)nc3ccccc23)cc1/C=C/C(=O)NO
half-life [4]: 9 h
IC50 (Histone deacetylase 8): 280 nM
Activity (HT-29 [5]): Dde
IC50 (K562 [1]): 0.38 nM
microsomal CLint [6]: 3.27 µL/min/mg
IC50 (Histone deacetylase 11): 3200 nM
IC50 (HT-29 [2]): 0.66 nM
IC50 (MIA PaCa-2): 1.1 nM
IC50 (A549): 0.51 nM
half-life [7]: 3.53 h
IC50 (SK-OV-3): 0.3 nM
Activity (HT-29 [8]): >95%
Activity (HT-29 [9]): Active
microsomal CLint [10]: 1.28 µL/min/mg
solubility [11]: 65 µg/mL (≈ 178 µM)
IC50 [12]: 2000 nM
IC50 (MDA-MB-231): 0.55 nM
GI50 (HCT-116; Homo sapiens, HCT-116): 0.6 nM
IC50 (MCF7): 0.8 nM
IC50 (K562 [3]): 1.63 nM
IC50 (NCI-N87): 0.17 nM

C=C(c1ccc(OC)c(/C=C/C(=O)NO)c1)c1cc(OC)c(OC)c(OC)c1
half-life [4]: 14 h
IC50 (K562 [1]): 1.6 nM
microsomal CLint [6]: 2.57 µL/min/mg
IC50 (HT-29 [2]): 2 nM
IC50 (MIA PaCa-2): 6 nM
IC50 (A549): 2 nM
half-life [7]: 4.42 h
IC50 (SK-OV-3): 4 nM
microsomal CLint [10]: 0.83 µL/min/mg
IC50 (MDA-MB-231): 4.6 nM
IC50 (HCT-116; Homo sapiens, HCT-116, 72 h): 1.5 nM
IC50 (MCF7): 2.2 nM
IC50 (K562 [3]): 1.4 nM
IC50 (NCI-N87): 3.2 nM

COc1ccc(N(C)c2nc(C#N)nc3ccccc23)cc1/C=C/C(=O)NO
GI50 (HCT-116; Homo sapiens, HCT-116): 1.5 nM

COc1ccc(N(C)c2cc(C#N)nc3ccccc23)cc1OCCCC(=O)NO
GI50 (HCT-116; Homo sapiens, HCT-116): 381 nM

COc1ccc(N(C)c2cc(C#N)nc3ccccc23)cc1/C=C/CCC(=O)NO
GI50 (HCT-116; Homo sapiens, HCT-116): 34.4 nM

COc1ccc(N(C)c2cc(C#N)nc3ccccc23)cc1C#CCCC(=O)NO
GI50 (HCT-116; Homo sapiens, HCT-116): 25.2 nM

COc1ccc(N(C)c2cc(C#N)nc3ccccc23)cc1I
GI50 (HCT-116; Homo sapiens, HCT-116): 24.6 nM

COc1ccc(N(C)c2nc(C)nc3ccccc23)cc1/C=C/C(=O)NOC1CCCCO1 (stereo unspecified)
GI50 (HCT-116; Homo sapiens, HCT-116): 12.5 nM

COc1ccc(N(C)c2cc(C)nc3ccccc23)cc1/C=C/C(=O)NOC1CCCCO1 (stereo unspecified)
GI50 (HCT-116; Homo sapiens, HCT-116): 30.3 nM

C=C(c1ccc(OC)c(O)c1)c1cc(OC)c(OC)c(OC)c1
half-life [4]: 12 h
IC50 (Tubulin): 6 nM
microsomal CLint [6]: 2.73 µL/min/mg
IC50 (A549): 12 nM
half-life [7]: 4.24 h
IC50 (SK-OV-3): 5 nM
microsomal CLint [10]: 0.96 µL/min/mg
GI50 (HCT-116; Homo sapiens, HCT-116): 2.2 nM
IC50 (K562 [3]): 3 nM
IC50 (NCI-N87): 14 nM

COc1ccc(N(C)c2cc(C#N)nc3ccccc23)cc1OCC(=O)NO
GI50 (HCT-116; Homo sapiens, HCT-116): 64.5 nM

C=C(c1ccc(OC)c(/C=C/C(=O)NO)c1)c1cc(C)nc2ccccc12
GI50 (HCT-116; Homo sapiens, HCT-116): 10.1 nM

COc1ccc(N(C)c2cc(C)nc3ccccc23)cc1/C=C/C(=O)NO
GI50 (HCT-116; Homo sapiens, HCT-116): 6.3 nM

COc1ccc(N(C)c2cc(C#N)nc3ccccc23)cc1/C=C/C(=O)NOC1CCCCO1 (stereo unspecified)
GI50 (HCT-116; Homo sapiens, HCT-116): 4.91 nM
